Assays:
L929 cells = assay: L929 cell necroptosis assay (same protocol as the HT29 cell assay); type: cell-based, mouse; settings: for IC50: Mus musculus; for L929 Inhibition (10 μM): 10 μM test compound, protocol as HT29 assay
Method: The efficacies of RIP1 inhibitors were tested in vitro using human colon cancer TH29 cells in a necroptosis assay. […] Then the cells were treated with TNF-α (40 ng/mL), Smacmimetic (100 nM) and z-VAD (20 μM) for 48 hours, and the viability was quantified. DMSO pretreatment group was negative control, Nec-1 pretreatment group was positive control.
Biological In Vitro L929 Cell Assay.
Mouse L-cells NCTC 929 (L929) were acquired from ATCC (cat. no. ATCC CCL-1) and banked in liquid nitrogen. The assay protocol was the same as described for the HT29 cell assay.

HT29 cells [1] = assay: HT29 cell necroptosis assay (TNF-α/Smac mimetic/z-VAD induced necrosis, viability); type: cell-based, human; settings: Homo sapiens, HT-29, HT29 cells, TNF-α/Smacmimetic/z-VAD induced necrosis
HT29 cells [2] = assay: as above; type: cell-based, human; settings: 10 μM test compound pretreated one hour, TNF-α (40 ng/mL), Smacmimetic (100 nM), z-VAD (20 μM) for 48 hours
Method: Biological in Vitro HT29 Cell Assay.
The efficacies of RIP1 inhibitors were tested in vitro using human colon cancer TH29 cells in a necroptosis assay. For the assay, Cells were added to 96-well plates and then 10 μM of the test compound was pretreated for one hour. Then the cells were treated with TNF-α (40 ng/mL), Smacmimetic (100 nM) and z-VAD (20 μM) for 48 hours, and the viability was quantified. DMSO pretreatment group was negative control, Nec-1 pretreatment group was positive control.

| Compound | IC50 (L929 cells; values in nM) [nM] | IC50 (HT29 cells [1]; values in nM) [nM] | HT29 Inhibition (10 μM) (HT29 cells [2]) [%] | L929 Inhibition (10 μM) (L929 cells) [%] | IC50 (L929 cells; values given in μM) [nM] | IC50 (HT29 cells [1]; values given in μM) [nM] |
| --- | --- | --- | --- | --- | --- | --- |
| CC(=O)Nc1nc2ccc(-c3cnc(C)c(NC(=O)OC4CCCCC4)c3)cc2s1 [Compound A36, Cyclohexyl (5-(2-acetamidobenzo[d]thiazol-6-yl)-2-methylpyridin-3-yl)carbamate] | 5 | 30 | – | – | – | – |
| CC(=O)Nc1nc2ccc(-c3cnc(Cl)c(NC(=O)Cc4ccccc4Cl)c3)cc2s1 [Compound A24] | – | 527 | 113 | 42 | – | – |
| CC(=O)Nc1nc2ccc(-c3cnc(C)c(NC(=O)OC4CCCCC4)c3)nc2s1 [Compound A57] | 30 | 92 | – | – | – | – |
| CC(=O)Nc1nc2ccc(-c3cnc(Cl)c(NC(=O)Cc4ccc(OCCOCCNC(=O)OC(C)(C)C)cc4)c3)cc2s1 [Compound A26] | – | – | 30 | 42 | – | – |
| CC(=O)Nc1nc2ccc(-c3cnc(C)c(NC(=O)Cc4ccccc4)c3)cc2s1 [Compound A23] | – | 670 | 104 | 42 | – | – |
| CC(=O)Nc1nc2ccc(-c3cncc(NC(=O)Cc4ccc(Cl)cc4)c3)cc2s1 [Compound A15] | – | – | 95 | 87 | – | – |
| CC(=O)Nc1nc2ccc(-c3cnc(Cl)c(NC(=O)c4ccncc4)c3)cc2s1 [Compound A4] | – | – | 25 | 1 | – | – |
| CC(=O)Nc1nc2ccc(-c3cnc(Cl)c(NC(=O)Cc4ccc(OCCOCCNC(=O)CCCCCNC(=O)CCCC[C@@H]5SC[C@@H]6NC(=O)N[C@@H]65)cc4)c3)cc2s1 [Compound A27] | – | – | 48 | 42 | – | – |
| CCc1ncc(-c2ccc3nc(NC(C)=O)sc3c2)cc1NC(=O)OC1CCCCC1 [Compound A54] | 200 | 75 | – | – | – | – |
| CC(=O)Nc1nc2ccc(-c3cccc(NC(=O)Cc4ccccc4)c3)cc2s1 [Compound A20] | – | – | 11 | 69 | – | – |
| Nc1nc2ccc(-c3cnc(Cl)c(NC(=O)c4cccc(F)c4)c3)cc2s1 [Compound A1] | – | – | 112 | 48 | – | – |
| CC(=O)Nc1cn2cc(-c3cnc(C)c(NC(=O)CC4CCCCC4)c3)ccc2n1 [Compound A46] | – | 900 | – | – | 2480 | – |
| CC(=O)Nc1nc2ccc(-c3ccnc(NC(=O)Cc4ccccc4Cl)c3)cc2s1 [Compound A30] | – | – | 38 | 45 | – | – |
| CC(=O)Nc1nc2ccc(-c3cnc(Cl)c(NC(=O)c4cccnc4)c3)cc2s1 [Compound A3] | – | – | 7 | 1 | – | – |
| CC(=O)Nc1nc2ccc(-c3cncc(NC(=O)Cc4ccccc4Cl)c3)cc2s1 [Compound A13] | – | – | 80 | 94 | – | 5240 |
| CC(=O)Nc1nc2ccc(-c3cnc(C)c(NC(=O)CC(C)(C)C)c3)cc2s1 [Compound A45] | – | 430 | – | – | 1010 | – |

| Compound | IC50 (L929 cells; values in nM) [nM] | IC50 (HT29 cells [1]; values in nM) [nM] | HT29 Inhibition (10 μM) (HT29 cells [2]) [%] | L929 Inhibition (10 μM) (L929 cells) [%] | IC50 (L929 cells; values given in μM) [nM] | IC50 (HT29 cells [1]; values given in μM) [nM] |
| --- | --- | --- | --- | --- | --- | --- |
| CC(=O)Nc1nc2ccc(-c3ccc(C)c(NC(=O)OC4CCCCC4)n3)cc2s1 [Compound A56, Cyclohexyl (6-(2-acetamidobenzo[d]thiazol-6-yl)-3-methylpyridin-2-yl) Carbamate] | 500 | 700 | – | – | – | – |
| CC(=O)Nc1nc2ccc(-c3cc(NC(=O)Cc4ccccc4Cl)ccn3)cc2s1 [Compound A29] | – | – | 81 | 45 | – | – |
| CC(=O)Nc1nc2cc(-c3cnc(C)c(NC(=O)OC4CCCCC4)c3)ccn2n1 [Compound A58] | – | – | – | – | 1000 | 1000 |
| COc1ncc(-c2ccc3nc(NC(C)=O)sc3c2)cc1NC(=O)Cc1ccccc1 [Compound A22] | – | – | 66 | 42 | – | – |
| CC(=O)Nc1nc2ccc(-c3cc(NC(=O)Cc4ccccc4)ccn3)cc2s1 [Compound A19] | – | – | 1 | 22 | – | – |
| CC(=O)Nc1nc2ccc(-c3cncc(NC(=O)Cc4cccc(Cl)c4)c3)cc2s1 [Compound A14] | – | – | 71 | 95 | – | – |
| CC(=O)Nc1nc2ccc(-c3cncc(NC(=O)c4cccc(F)c4)c3)cc2s1 [Compound A5] | – | – | 50 | 90 | – | – |
| CC(=O)Nc1nc2ccc(-c3cncc(NC(=O)Cc4ccc(F)cc4)c3)cc2s1 [Compound A18] | – | – | 24 | 51 | – | – |
| CC(=O)Nc1nc2ccc(-c3cccc(NC(=O)Cc4ccccc4Cl)c3)cc2s1 [Compound A28] | – | – | 34 | 45 | – | – |
| CC(=O)Nc1nc2ccc(-c3cnc(Cl)c(NC(=O)Cc4ccccc4)c3)cc2s1 [Compound A21] | – | – | 28 | 42 | – | 16500 |
| CC(=O)Nc1nc2ccc(-c3cncc(NC(=O)Cc4ccccc4)c3)cc2s1 [Compound A12] | – | – | 11 | 80 | – | 2560 |
| Cc1ncc(-c2ccc3nc(NC(=O)CCCCCNC(=O)OC(C)(C)C)sc3c2)cc1NC(=O)Cc1ccccc1 [Compound A31] | – | – | 87 | – | – | 3400 |
| Cc1ncc(-c2ccc3nc(NC(=O)C4CC4)sc3c2)cc1NC(=O)OC1CCCCC1 [Compound A61] | 3 | 1.2 | – | – | – | – |
| CC(=O)Nc1nc2ccc(-c3cnc(C)c(NC(=O)CC4CCCC4)c3)cc2s1 [Compound A43] | – | 431 | 78 | – | – | – |
| CC(=O)Nc1nc2ccc(-c3cncc(NC(=O)Cc4ccccc4F)c3)cc2s1 [Compound A16] | – | – | 36 | 86 | – | – |

Reference: patent publication US10815226B2, “Heteroaryl compounds as inhibitors of necrosis, composition and application thereof” (ACCRO BIOSCIENCE INC., priority 2016, dated 2020)
